In PMC7901646, “Pyrrolo[2′,3′:3,4]cyclohepta[1,2-d][1,2]oxazoles, a New Class of Antimitotic Agents Active against Multiple Malignant Cell Types” (Journal of Medicinal Chemistry, 2020):
Read-outs that look alike come from different tables or passages of the source.

How the values were obtained:
Assay type in all cases: cell-based
VL51 (MZL) = test: MTT cell proliferation, lymphoma; conditions: Homo sapiens, 72 h; for activity at 1 µM: of untreated cells, read-out: Proliferating cells (%); for IC50: MTT
How it was run: (§1)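 Lymphoma lines in RPMI-1640 with 10% FBS seeded at 1 × 10^5 cells/mL and treated with 1 μM, or in triplicate with serial dilutions over 40–10 000 nM, for 72 h at 37 °C, 5% CO2. Viability by MTT (4 h), SDS lysis, absorbance at 570 nm with medium-only blanks.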

[1] = system: VL51 idelalisib-resistant; test: MTT cell proliferation, lymphoma; conditions: Homo sapiens, 72 h, of untreated cells, read-out: Proliferating cells (%)
How it was run: as §1

SU-DHL-10 (GCB DLBCL) = test: MTT cell proliferation, lymphoma; conditions: Homo sapiens, SU-DHL10, 72 h; for activity at 1 µM: of untreated cells, read-out: Proliferating cells (%); for IC50: MTT
How it was run: as §1

MINO (MCL) = test: MTT cell proliferation, lymphoma; conditions: Homo sapiens, 72 h; for activity at 1 µM: of untreated cells, read-out: Proliferating cells (%); for IC50: MTT
How it was run: as §1

HBL1 (ABC DLBCL) = test: MTT cell proliferation, lymphoma; conditions: Homo sapiens, 72 h; for activity at 1 µM: of untreated cells, read-out: Proliferating cells (%); for IC50: MTT
How it was run: as §1

VL51 ibrutinib-resistant = test: MTT cell proliferation, lymphoma; conditions: Homo sapiens, 72 h, of untreated cells, read-out: Proliferating cells (%)
How it was run: as §1

[2] = system: NCI-60 panel of human cancer cell lines; test: NCI in vitro human tumor cell line screening, full panel; conditions: for MG_MID (mean graph midpoint): arithmetic mean for all tested cancer cell lines
From the text: (§2) on the full NCI-60 panel comprising cancer cell lines derived from nine human cancer cell types (leukemia, non-small-cell lung, colon, central nervous system, melanoma, ovarian, renal, prostate, and breast).[50]

SR = test: NCI-60 screen; conditions: Homo sapiens, Leukemia
Method: as §2, with “All the synthesized compounds 51–76 were tested at a 10^–5 M concentration for their antitumor activity on the” for “on the”

MCF7 = test: NCI-60 screen; conditions: Homo sapiens, Breast Cancer
Method: as §2, with “All the synthesized compounds 51–76 were tested at a 10^–5 M concentration for their antitumor activity on the” for “on the”

SNB-19 = test: NCI-60 screen; conditions: Homo sapiens, CNS Cancer
Method: as §2, with “All the synthesized compounds 51–76 were tested at a 10^–5 M concentration for their antitumor activity on the” for “on the”

PC-3 = test: NCI-60 screen; conditions: Homo sapiens, Prostate Cancer
Method: as §2, with “All the synthesized compounds 51–76 were tested at a 10^–5 M concentration for their antitumor activity on the” for “on the”

K-562 = test: NCI-60 screen; conditions: Homo sapiens, K562; Leukemia
Method: as §2, with “All the synthesized compounds 51–76 were tested at a 10^–5 M concentration for their antitumor activity on the” for “on the”

HL-60(TB) = test: NCI-60 screen; conditions: Homo sapiens, Leukemia
Method: as §2, with “All the synthesized compounds 51–76 were tested at a 10^–5 M concentration for their antitumor activity on the” for “on the”

NCI-H460 = test: NCI-60 screen; conditions: Homo sapiens, Non-Small-Cell Lung Cancer
Method: as §2, with “All the synthesized compounds 51–76 were tested at a 10^–5 M concentration for their antitumor activity on the” for “on the”

SK-OV-3 = test: NCI-60 screen; conditions: Homo sapiens, Ovarian Cancer
Method: as §2, with “All the synthesized compounds 51–76 were tested at a 10^–5 M concentration for their antitumor activity on the” for “on the”

UACC-62 = test: NCI-60 screen; conditions: Homo sapiens, Melanoma
Method: as §2, with “All the synthesized compounds 51–76 were tested at a 10^–5 M concentration for their antitumor activity on the” for “on the”

MDA-MB-231/ATCC = test: NCI-60 screen; conditions: Homo sapiens, Breast Cancer
Method: as §2, with “All the synthesized compounds 51–76 were tested at a 10^–5 M concentration for their antitumor activity on the” for “on the”

M14 = test: NCI-60 screen; conditions: Homo sapiens, Melanoma
Method: as §2, with “All the synthesized compounds 51–76 were tested at a 10^–5 M concentration for their antitumor activity on the” for “on the”

TK-10 = test: NCI-60 screen; conditions: Homo sapiens, Renal Cancer
Method: as §2, with “All the synthesized compounds 51–76 were tested at a 10^–5 M concentration for their antitumor activity on the” for “on the”

RPMI-8226 = test: NCI-60 screen; conditions: Homo sapiens, Leukemia
Method: as §2, with “All the synthesized compounds 51–76 were tested at a 10^–5 M concentration for their antitumor activity on the” for “on the”

CCRF-CEM = test: NCI-60 screen; conditions: Homo sapiens, Leukemia
Method: as §2, with “All the synthesized compounds 51–76 were tested at a 10^–5 M concentration for their antitumor activity on the” for “on the”

NCI-H226 = test: NCI-60 screen; conditions: Homo sapiens, Non-Small-Cell Lung Cancer
Method: as §2, with “All the synthesized compounds 51–76 were tested at a 10^–5 M concentration for their antitumor activity on the” for “on the”

COLO 205 = test: NCI-60 screen; conditions: Homo sapiens, Colon Cancer
Method: as §2, with “All the synthesized compounds 51–76 were tested at a 10^–5 M concentration for their antitumor activity on the” for “on the”

HCT-15 = test: NCI-60 screen; conditions: Homo sapiens, Colon Cancer
Method: as §2, with “All the synthesized compounds 51–76 were tested at a 10^–5 M concentration for their antitumor activity on the” for “on the”

SF-268 = test: NCI-60 screen; conditions: Homo sapiens, CNS Cancer
Method: as §2, with “All the synthesized compounds 51–76 were tested at a 10^–5 M concentration for their antitumor activity on the” for “on the”

ACHN = test: NCI-60 screen; conditions: Homo sapiens, Renal Cancer
Method: as §2, with “All the synthesized compounds 51–76 were tested at a 10^–5 M concentration for their antitumor activity on the” for “on the”

A498 = test: NCI-60 screen; conditions: Homo sapiens, Renal Cancer
Method: as §2, with “All the synthesized compounds 51–76 were tested at a 10^–5 M concentration for their antitumor activity on the” for “on the”

SF-295 = test: NCI-60 screen; conditions: Homo sapiens, CNS Cancer
Method: as §2, with “All the synthesized compounds 51–76 were tested at a 10^–5 M concentration for their antitumor activity on the” for “on the”

OVCAR-3 = test: NCI-60 screen; conditions: Homo sapiens, Ovarian Cancer
From the text: as §2

KM12 = test: NCI-60 screen; conditions: Homo sapiens, Colon Cancer
From the text: as §2

LOX IMVI = test: NCI-60 screen; conditions: Homo sapiens, Melanoma
From the text: as §2

NCI-H522 = test: NCI-60 screen; conditions: Homo sapiens, Non-Small-Cell Lung Cancer
From the text: as §2

## CCOC(=O)c1cc2c(n1Cc1cc(OC)cc(OC)c1)-c1oncc1CCC2 [Compound 66, Ethyl 9-(3,5-Dimethoxybenzyl)-4,5,6,9-tetrahydropyrrolo[2′,3′:3,4]cyclohepta[1,2-d][1,2]oxazole-8-carboxylate]
VL51 (MZL)
  activity at 1 µM: 40.1%
  IC50: 250 nM
[1]
  activity at 1 µM: 34.3%
SU-DHL-10 (GCB DLBCL)
  activity at 1 µM: 11.3%
  IC50: 250 nM
MINO (MCL)
  activity at 1 µM: 9.1%
  IC50: 250 nM
HBL1 (ABC DLBCL)
  activity at 1 µM: 24.1%
  IC50: 300 nM
VL51 ibrutinib-resistant
  activity at 1 µM: 40.5%
[2]; Homo sapiens, prostate subpanel, read-out: GI50
  GI50: 40 nM
[2]; full NCI panel
  MG_MID (mean graph midpoint): 0.08 µM
[2]; colon and CNS cancers
  mean values of subpanel: 0.06 µM
[2]; full NCI panel, five concentrations 10^–4–10^–8 M, read-out: GI50 (concentration that inhibits 50% net cell growth), range over panel
  GI50: 10 to 13400 nM
[2]; melanoma, prostate and renal subpanels
  calculated MG_MID value for each subpanel: 0.04 µM
SR
  GI50: 30 nM
MCF7
  GI50: 30 nM
SNB-19
  GI50: 150 nM
PC-3
  GI50: 40 nM
K-562
  GI50: 40 nM
HL-60(TB)
  GI50: 30 nM
NCI-H460
  GI50: 40 nM
SK-OV-3
  GI50: 50 nM
UACC-62
  GI50: 70 nM
MDA-MB-231/ATCC
  GI50: 240 nM
M14
  GI50: 50 nM
TK-10
  GI50: > 100 µM
RPMI-8226
  GI50: 50 nM
CCRF-CEM
  GI50: 50 nM
NCI-H226
  GI50: 7.98 µM
COLO 205
  GI50: 30 nM
HCT-15
  GI50: 40 nM
SF-268
  GI50: 50 nM
ACHN
  GI50: 60 nM
A498
  GI50: 20 nM
SF-295
  GI50: 30 nM
OVCAR-3
  GI50: 20 nM
KM12
  GI50: 30 nM
LOX IMVI
  GI50: 50 nM
NCI-H522
  GI50: 20 nM

## CCOC(=O)c1c(Cl)c2c(n1Cc1cc(OC)cc(OC)c1)-c1oncc1CCC2 [Compound 75, Ethyl 7-Chloro-9-(3,5-dimethoxybenzyl)-4,5,6,9-tetrahydropyrrolo[2′,3′:3,4]cyclohepta[1,2-d][1,2]oxazole-8-carboxylate]
VL51 (MZL)
  activity at 1 µM: 38.1%
  IC50: 800 nM
[1]
  activity at 1 µM: 40.2%
SU-DHL-10 (GCB DLBCL)
  activity at 1 µM: 11.5%
  IC50: 900 nM
MINO (MCL)
  activity at 1 µM: 9.5%
  IC50: 900 nM
HBL1 (ABC DLBCL)
  activity at 1 µM: 20.7%
  IC50: 900 nM
VL51 ibrutinib-resistant
  activity at 1 µM: 40.8%
[2]; Homo sapiens, full NCI panel, five concentrations 10^–4–10^–8 M, read-out: GI50 (concentration that inhibits 50% net cell growth), range over panel
  GI50: 30 to 27000 nM
[2]; full NCI panel
  MG_MID (mean graph midpoint): 0.41 µM
SR
  GI50: 70 nM
MCF7
  GI50: 100 nM
SNB-19
  GI50: 520 nM
PC-3
  GI50: 290 nM
K-562
  GI50: 290 nM
HL-60(TB)
  GI50: 310 nM
NCI-H460
  GI50: 350 nM
SK-OV-3
  GI50: 240 nM
UACC-62
  GI50: 110 nM
MDA-MB-231/ATCC
  GI50: 840 nM
M14
  GI50: 260 nM
TK-10
  GI50: 10.3 µM
RPMI-8226
  GI50: 390 nM
CCRF-CEM
  GI50: 250 nM
NCI-H226
  GI50: 9.71 µM
COLO 205
  GI50: 170 nM
HCT-15
  GI50: 370 nM
SF-268
  GI50: 1910 nM
ACHN
  GI50: 940 nM
A498
  GI50: 170 nM
SF-295
  GI50: 60 nM
OVCAR-3
  GI50: 190 nM
KM12
  GI50: 320 nM
LOX IMVI
  GI50: 880 nM
NCI-H522
  GI50: 30 nM
